Earlier results as cited in patent US9180090B2, “Non-sedating antihistamine injection formulations and methods of use thereof” (JDP THERAPEUTICS, INC., priority 2009, dated 2015).

Columns and labels:
[1] = for Major (potential drug interactions) / Minor (potential drug interactions) / Moderate (potential drug interactions): number of interactions per drugs.com
[2] = oral

SMILES	Major (potential drug interactions) [1]	Minor (potential drug interactions) [1]	Moderate (potential drug interactions) [1]	Disease state interaction ([1]; per drugs.com)	AUC0-24 (single dose) ([2]; single dose)	AUC(single dose)0-inf ([2]; single dose)	AUCss ([2]; steady state)
O=C(O)COCCN1CCN(C(c2ccccc2)c2ccc(Cl)cc2)CC1 (racemic) [Cetirizine, (±)-[2-[4-[(4-chlorophenyl)phenylmethyl]-1-piperazinyl]ethoxy]acetic acid]	0	5	568	Renal/Liver Disease			
OCCOCCN1CCN(C(c2ccccc2)c2ccc(Cl)cc2)CC1 (racemic) [Hydroxyzine]	17	6	622				
Clc1ccc2c(c1)CCc1cccnc1C2=C1CCNCC1 [desloratadine]					AUC0-24 (single dose) = about 34.2 ng · hr/mL	AUC(single dose)0-inf = about 35.6 ng/hr/mL	AUCss = about 56.9 ng · hr/mL
